The numbers were not newly measured in patent US20230128032A1, “Early Drug Interventions to Reduce COVID-19 Related Respiratory Distress, Need for Respirator Assist and Death” (Curtails LLC, priority 2020, published 2023), which cites them from elsewhere.

For data set [1], the system named is patients with pulmonary arterial hypertension. The conditions noted are these: racecadotril treatment.
The test system of data set [2] is patients with acute lung injury. The conditions noted are these: intravenous infusion, mechanical ventilation with positive end-expiratory pressure.
Another data set relates to isolated perfused lung. The conditions noted are these: increased capillary pressure, hypoxia or inflammatory stimuli such as detergents or prostaglandins.
Another data set has as its system mice. The conditions noted are these: ANP pretreatment.
The test system of data set [3] is intensive care patients without heart disease.

Bridges are numbered along the chain shown (N, C = ends). Where no end group is shown, it is not given here.

Consider `CC(=O)SCC(Cc1ccccc1)C(=O)NCC(=O)OCc1ccccc1` (stereo not shown) [racecadotril], for which, in data set [1], the “increase in plasma cGMP levels” value is on record as 106%, the “increase in the plasma ANP concentration” value is 79% and the “reduction in pulmonary vascular resistance” value was 14%.
For the molecule “ANP: synthetic form of the GC-A agonist peptide atrial natriuretic peptide (SLRRSSCFGGRMDRIGAQSGLGCNSFRY; disulfide 7-23; ends not checked; UniProt P01160 124-151, looked up)”, in data set [2], the lung injury score entry is given as “improved” and the pulmonary gas exchange entry is “improved”. Besides, the “anti-oedematic action in isolated perfused lung” value in the data set with isolated perfused lung was “direct anti-oedematic action”. In the data set on rodents, the “pulmonary oedema induced by lung ischaemia-reperfusion injury” value was “attenuated”. Further, in the data set on mice, the “lung injury, inflammation and endothelial barrier dysfunction induced by gram-negative bacterial wall LPS or Staphylococcus Aureus infection” value is “protected”. Besides, in data set [3], the pulmonary oedema result is recorded as “diminished”. Also, the “pulmonary oedema induced by congestive heart failure” value with dogs is reported as “attenuated”.
